Each structure is given as a SMILES string.

For the experiment, the system named is Apt-5 (unlabelled) (DNA, aptamer) AGCAGCACAGAGGTCAGATGGGATGTGAGGTGGCTCTCGTATCTATAGATTTTGGCGAGACCTATGCGTGCTACCGTGAA
Nature of the experiment: AuNP aggregation colorimetry. Conditions: NaCl added after incubation (75 mM optimised); 37 °C, 1 h; 10 ng/mL toxin; 200 nM aptamer stock; insignificant colour change.
In the case of `CCCC[C@@H](C)[C@@H](OC(=O)C[C@@H](CC(=O)O)C(=O)O)[C@H](C[C@@H](C)C[C@H](O)CCCC[C@@H](O)C[C@H](O)[C@H](C)N)OC(=O)C[C@@H](CC(=O)O)C(=O)O`, the binding result is reported as “no”.

In the case of `C[C@@H]1Cc2c(Cl)cc(C(=O)N[C@@H](Cc3ccccc3)C(=O)O)c(O)c2C(=O)O1`, the binding entry was “no”.

Regarding `C[C@H]1CCCC(=O)CCC/C=C/c2cc(O)cc(O)c2C(=O)O1`, the binding result is on record as “no”.

Values taken from paper PMC9222373 (2022).
